According to patent US20230257396A1, “MACROCYCLES AND THEIR USE” (BLOSSOMHILL THERAPEUTICS, INC., priority 2020, published 2023):
Numbering of substitutions follows the chain as printed.

Key:
Assay in all cases: KINOMEscan kinase binding assay (Eurofins/DiscoveRx), % Ctrl
Conditions in all cases: 1 μM
kinases [1] = molecular target: T1, kinases (Homo sapiens, UniProt P07949, M918T)
T1 construct: purchased Eurofins/DiscoveRx; host or cells: E. coli BL21-derived host (T7 phage display) for most kinases; HEK-293 for the rest
Outline: (§1)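 Read-out is qPCR of kinase eluted from ligand-coated streptavidin beads after 1 h room-temperature competition with test compound. Values are % Ctrl at the tested concentration, lower meaning tighter binding.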

kinases [2] = molecular target: T2, kinases (Homo sapiens, UniProt P10721)
T2 construct: purchased Eurofins/DiscoveRx; host or cells: E. coli BL21-derived host (T7 phage display) for most kinases; HEK-293 for the rest
Outline: as §1

kinases [3] = molecular target: T3, kinases (Homo sapiens, UniProt P10721, L576P)
T3 construct: purchased Eurofins/DiscoveRx; host or cells: E. coli BL21-derived host (T7 phage display) for most kinases; HEK-293 for the rest
Outline: as §1

kinases [4] = molecular target: T4, kinases (Homo sapiens, UniProt P16234)
T4 construct: purchased Eurofins/DiscoveRx; host or cells: E. coli BL21-derived host (T7 phage display) for most kinases; HEK-293 for the rest
Outline: as §1

kinases [5] = molecular target: T5, kinases (Homo sapiens, UniProt P36888)
T5 construct: purchased Eurofins/DiscoveRx; host or cells: E. coli BL21-derived host (T7 phage display) for most kinases; HEK-293 for the rest
T5 sequence (P36888 27-993): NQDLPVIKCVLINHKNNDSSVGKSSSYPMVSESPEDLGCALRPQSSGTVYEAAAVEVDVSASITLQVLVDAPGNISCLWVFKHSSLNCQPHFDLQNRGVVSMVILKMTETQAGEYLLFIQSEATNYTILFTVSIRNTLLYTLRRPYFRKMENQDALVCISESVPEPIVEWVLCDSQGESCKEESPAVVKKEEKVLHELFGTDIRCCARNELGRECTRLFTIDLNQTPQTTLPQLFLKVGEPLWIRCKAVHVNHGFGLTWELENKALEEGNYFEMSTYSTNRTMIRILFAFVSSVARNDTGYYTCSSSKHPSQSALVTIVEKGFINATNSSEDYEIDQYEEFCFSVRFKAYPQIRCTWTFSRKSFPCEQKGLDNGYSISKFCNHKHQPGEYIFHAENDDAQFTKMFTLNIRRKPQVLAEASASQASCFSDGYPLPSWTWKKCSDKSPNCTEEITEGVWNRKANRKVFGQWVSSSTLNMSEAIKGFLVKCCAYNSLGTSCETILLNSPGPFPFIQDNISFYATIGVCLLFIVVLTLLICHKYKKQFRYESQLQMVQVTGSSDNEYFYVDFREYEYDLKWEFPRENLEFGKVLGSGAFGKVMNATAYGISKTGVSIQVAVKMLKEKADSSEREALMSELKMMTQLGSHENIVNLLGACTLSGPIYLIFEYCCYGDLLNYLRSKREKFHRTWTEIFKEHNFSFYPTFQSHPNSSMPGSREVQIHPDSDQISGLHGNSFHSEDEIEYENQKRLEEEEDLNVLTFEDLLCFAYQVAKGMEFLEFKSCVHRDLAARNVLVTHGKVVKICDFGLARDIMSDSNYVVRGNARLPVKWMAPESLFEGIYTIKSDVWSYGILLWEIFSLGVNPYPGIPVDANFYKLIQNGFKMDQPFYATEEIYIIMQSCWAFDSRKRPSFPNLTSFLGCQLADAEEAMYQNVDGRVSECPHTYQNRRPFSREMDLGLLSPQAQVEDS
Outline: as §1

kinases [6] = molecular target: T6, kinases (Homo sapiens, UniProt P36888, N841I)
T6 construct: purchased Eurofins/DiscoveRx; host or cells: E. coli BL21-derived host (T7 phage display) for most kinases; HEK-293 for the rest
T6 sequence (P36888 27-993 N841I): T5 sequence (P36888 27-993) with N815I
Outline: as §1

T2 sequence (P10721 26-976): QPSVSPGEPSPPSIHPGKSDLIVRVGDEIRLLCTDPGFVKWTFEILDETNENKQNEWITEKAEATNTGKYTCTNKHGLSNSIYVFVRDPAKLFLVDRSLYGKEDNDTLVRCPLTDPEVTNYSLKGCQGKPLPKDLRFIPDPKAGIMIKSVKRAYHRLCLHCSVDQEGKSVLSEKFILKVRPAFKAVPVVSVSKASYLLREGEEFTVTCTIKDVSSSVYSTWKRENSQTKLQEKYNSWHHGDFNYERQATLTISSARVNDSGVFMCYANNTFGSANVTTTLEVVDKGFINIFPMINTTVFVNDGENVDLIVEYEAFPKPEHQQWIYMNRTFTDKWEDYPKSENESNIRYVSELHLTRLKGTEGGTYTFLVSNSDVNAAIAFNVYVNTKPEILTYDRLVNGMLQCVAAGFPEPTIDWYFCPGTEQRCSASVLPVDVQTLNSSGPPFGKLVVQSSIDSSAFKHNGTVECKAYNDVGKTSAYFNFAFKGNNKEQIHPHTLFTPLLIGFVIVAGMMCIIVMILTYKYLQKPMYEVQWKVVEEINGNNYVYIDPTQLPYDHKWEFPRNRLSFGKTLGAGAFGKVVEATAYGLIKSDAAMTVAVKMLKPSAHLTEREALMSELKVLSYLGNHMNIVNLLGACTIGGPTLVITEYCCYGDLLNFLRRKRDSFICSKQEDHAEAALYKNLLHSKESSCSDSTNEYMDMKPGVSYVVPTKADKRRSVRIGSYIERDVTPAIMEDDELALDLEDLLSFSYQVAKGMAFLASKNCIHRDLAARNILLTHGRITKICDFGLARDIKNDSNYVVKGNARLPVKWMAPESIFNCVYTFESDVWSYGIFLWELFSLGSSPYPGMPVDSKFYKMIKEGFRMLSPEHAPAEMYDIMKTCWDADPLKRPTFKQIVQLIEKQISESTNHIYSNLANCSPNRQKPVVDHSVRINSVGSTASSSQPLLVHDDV
T4 sequence (P16234 24-1089): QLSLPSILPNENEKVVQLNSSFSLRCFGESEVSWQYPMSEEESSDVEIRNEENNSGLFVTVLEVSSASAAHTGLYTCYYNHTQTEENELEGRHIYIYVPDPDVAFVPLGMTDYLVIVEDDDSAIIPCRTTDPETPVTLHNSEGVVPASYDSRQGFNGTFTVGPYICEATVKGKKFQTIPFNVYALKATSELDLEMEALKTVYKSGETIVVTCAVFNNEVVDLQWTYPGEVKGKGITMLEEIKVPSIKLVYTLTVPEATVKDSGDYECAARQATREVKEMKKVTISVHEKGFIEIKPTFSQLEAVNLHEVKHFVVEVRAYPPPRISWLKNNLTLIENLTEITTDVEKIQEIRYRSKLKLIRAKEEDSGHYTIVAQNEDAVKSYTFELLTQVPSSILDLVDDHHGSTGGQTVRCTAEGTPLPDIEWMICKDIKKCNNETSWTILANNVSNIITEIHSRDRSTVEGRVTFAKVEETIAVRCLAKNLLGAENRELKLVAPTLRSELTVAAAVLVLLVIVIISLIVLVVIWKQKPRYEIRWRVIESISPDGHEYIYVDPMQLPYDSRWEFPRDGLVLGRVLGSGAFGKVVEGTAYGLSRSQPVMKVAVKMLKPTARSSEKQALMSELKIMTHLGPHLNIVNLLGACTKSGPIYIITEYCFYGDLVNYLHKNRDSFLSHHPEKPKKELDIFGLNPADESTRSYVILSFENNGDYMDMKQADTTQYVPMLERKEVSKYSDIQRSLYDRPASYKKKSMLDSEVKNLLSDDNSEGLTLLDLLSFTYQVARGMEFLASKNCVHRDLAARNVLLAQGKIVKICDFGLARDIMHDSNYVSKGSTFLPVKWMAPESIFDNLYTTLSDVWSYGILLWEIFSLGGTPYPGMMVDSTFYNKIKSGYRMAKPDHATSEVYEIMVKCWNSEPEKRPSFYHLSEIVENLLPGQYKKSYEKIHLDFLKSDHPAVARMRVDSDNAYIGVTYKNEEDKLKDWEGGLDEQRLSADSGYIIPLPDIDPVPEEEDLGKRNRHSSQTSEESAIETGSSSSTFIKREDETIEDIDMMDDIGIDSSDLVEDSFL
T3 sequence (P10721 26-976 L576P): as the sequence (P10721 26-976) above, with L551P counted along it
T1 sequence (P07949 29-1114 M918T): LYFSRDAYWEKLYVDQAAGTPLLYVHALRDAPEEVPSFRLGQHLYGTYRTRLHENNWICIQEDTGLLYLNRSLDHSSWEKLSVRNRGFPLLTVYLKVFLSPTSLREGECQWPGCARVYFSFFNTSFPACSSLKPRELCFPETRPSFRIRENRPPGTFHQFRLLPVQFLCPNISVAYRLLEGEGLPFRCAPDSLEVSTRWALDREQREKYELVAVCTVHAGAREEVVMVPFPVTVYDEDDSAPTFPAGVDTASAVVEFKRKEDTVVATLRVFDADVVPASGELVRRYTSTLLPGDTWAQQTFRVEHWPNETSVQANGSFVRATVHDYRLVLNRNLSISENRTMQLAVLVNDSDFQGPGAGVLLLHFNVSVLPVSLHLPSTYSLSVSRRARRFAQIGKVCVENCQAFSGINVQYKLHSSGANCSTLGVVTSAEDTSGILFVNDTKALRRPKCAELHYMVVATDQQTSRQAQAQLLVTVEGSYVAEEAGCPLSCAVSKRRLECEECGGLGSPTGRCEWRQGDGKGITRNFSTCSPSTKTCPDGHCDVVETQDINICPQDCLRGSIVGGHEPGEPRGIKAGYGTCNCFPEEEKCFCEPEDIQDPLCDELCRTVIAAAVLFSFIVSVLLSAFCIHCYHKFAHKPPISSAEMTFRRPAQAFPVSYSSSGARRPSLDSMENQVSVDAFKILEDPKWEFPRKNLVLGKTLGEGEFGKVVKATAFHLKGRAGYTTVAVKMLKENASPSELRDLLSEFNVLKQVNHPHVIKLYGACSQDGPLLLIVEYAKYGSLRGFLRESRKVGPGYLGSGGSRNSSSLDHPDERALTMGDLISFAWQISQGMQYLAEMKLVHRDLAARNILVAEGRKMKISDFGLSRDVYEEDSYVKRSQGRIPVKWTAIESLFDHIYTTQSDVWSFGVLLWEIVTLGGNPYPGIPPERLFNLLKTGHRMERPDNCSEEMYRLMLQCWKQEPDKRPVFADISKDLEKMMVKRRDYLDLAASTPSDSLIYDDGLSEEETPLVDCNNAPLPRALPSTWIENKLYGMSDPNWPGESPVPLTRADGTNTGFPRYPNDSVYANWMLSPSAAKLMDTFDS

% Ctrl, RET(M918T) (kinases [1]; RET(M918T)) [% Ctrl]	% Ctrl, KIT (kinases [2]; KIT) [% Ctrl]	% Ctrl, KIT-autoinhibited (kinases [2]; KIT-autoinhibited) [% Ctrl]	% Ctrl, KIT(L576P) (kinases [3]; KIT(L576P)) [% Ctrl]	% Ctrl, PDGFRA (kinases [4]; PDGFRA) [% Ctrl]	% Ctrl, FLT3 (kinases [5]; FLT3) [% Ctrl]	% Ctrl, FLT3-autoinhibited (kinases [5]; FLT3-autoinhibited) [% Ctrl]	% Ctrl, FLT3(N841I) (kinases [6]; FLT3(N841I)) [% Ctrl]	% Ctrl, RET(M918T) (kinases [1]; target RET(M918T)) [% Ctrl]	% Ctrl, KIT-autoinhibited (kinases [2]; target KIT-autoinhibited) [% Ctrl]	% Ctrl, KIT (kinases [2]; target KIT) [% Ctrl]	% Ctrl, KIT(L576P) (kinases [3]; target KIT(L576P)) [% Ctrl]	% Ctrl, PDGFRA (kinases [4]; target PDGFRA) [% Ctrl]	% Ctrl, FLT3-autoinhibited (kinases [5]; target FLT3-autoinhibited) [% Ctrl]	% Ctrl, FLT3 (kinases [5]; target FLT3) [% Ctrl]	% Ctrl, FLT3(N841I) (kinases [6]; target FLT3(N841I)) [% Ctrl]	SMILES
100	100	78	98	100	100	98	68									Cc1cc2c([nH]1)/C=C1\C(=O)Nc3ccc(cc31)OCCOCCNC2=O [Ex. 129, [16a(17)Z]-2-methyl-6,7,9,10-tetrahydro-1H-12,14-(ethanediylidene)dipyrrolo[3,2-i:3′,4′-l][1,4,7]dioxazacyclopentadecine-4,16(5H,15H)-dione]
0	1.1	13	0	7.7	0.6	5.1	0									Cc1cc2c([nH]1)/C=C1\C(=O)Nc3cc(Cl)c(cc31)OCCOCCN(C)C2=O [Ex. 131, [16a(17)Z]-19-chloro-2,5-dimethyl-6,7,9,10-tetrahydro-1H-12,14-(ethanediylidene)dipyrrolo[3,2-i:3′,4′-l][1,4,7]dioxazacyclopentadecine-4,16(5H,15H)-dione]
26	65	75	8.7	70	48	95	19									Cc1cc2c([nH]1)/C=C1\C(=O)Nc3cc(Cl)c(cc31)OCCO[C@@H](C(=O)NC1CNC1)CN(C)C2=O [Ex. 133, [7R,16a(17)Z]-N-(azetidin-3-yl)-19-chloro-2,5-dimethyl-4,16-dioxo-4,5,6,7,9,10,15,16-octahydro-1H-12,14-(ethanediylidene)dipyrrolo[3,2-i:3′,4′-l][1,4,7]dioxazacyclopentadecine-7-carboxamide]
32	60	94	5.1	72	48	95	26									Cc1cc2c([nH]1)/C=C1\C(=O)Nc3cc(Cl)c(cc31)OCCO[C@@H](C(=O)NC1CCNCC1)CN(C)C2=O [Ex. 134, [7R,16a(17)Z]-19-chloro-2,5-dimethyl-4,16-dioxo-N-(piperidin-4-yl)-4,5,6,7,9,10,15,16-octahydro-1H-12,14-(ethaneidylidene)dipyrrolo[3,2-i:3′,4′-l][1,4,7]dioxazacyclopentadecine-7-carboxamide]
36	55	82	8.5	79	57	89	41									CNC(=O)[C@H]1CN(C)C(=O)c2cc(C)[nH]c2/C=C2\C(=O)Nc3cc(Cl)c(cc32)OCCO1 [Ex. 135, [7R,16a(17)Z]-19-chloro-N,2,5-trimethyl-4,16-dioxo-4,5,6,7,9,10,15,16-octahydro-1H-12,14-(ethanediylidene)dipyrrolo[3,2-i:3′,4′-l][1,4,7]dioxazacyclopentadecine-7-carboxamide]
25	49	83	4.8	56	36	97	14									Cc1cc2c([nH]1)/C=C1\C(=O)Nc3cc(Cl)c(cc31)OCCO[C@@H](C(=O)N[C@@H]1CCNC1)CN(C)C2=O [Ex. 136, [7R,16a(17)Z]-19-chloro-2,5-dimethyl-4,16-dioxo-N-[(3R)-pyrrolidin-3-yl]-4,5,6,7,9,10,15,16-octahydro-1H-12,14-(ethanediylidene)dipyrrolo[3,2-i:3′,4′-l][1,4,7]dioxazacyclopentadecine-7-carboxamide]
6.4	90	72	39	72	55	77	49									Cc1cc2c([nH]1)/C=C1\C(=O)Nc3cc(Cl)c(cc31)OCCO[C@@H](C(=O)N(C)C)CN(C)C2=O [Ex. 137, [7R,16a(17)Z]-19-chloro-N,N,2,5-tetramethyl-4,16-dioxo-4,5,6,7,9,10,15,16-octahydro-1H-12,14-(ethanediylidene)dipyrrolo[3,2-i:3′,4′-l][1,4,7]dioxazacyclopentadecine-7-carboxamide]
								72	96	90	69	75	76	77	68	Cc1cc2c([nH]1)/C=C1\C(=O)Nc3cc(Cl)c(cc31)OCCO[C@@H](C(=O)N1CCN(C)CC1)CN(C)C2=O [Ex. 138, [7R,16a(17)Z]-19-chloro-2,5-dimethyl-7-(4-methylpipearazine-1-carbonyl)-6,7,9,10-tetrahydro-1H-12,14-(ethanediylidene)dipyrrolo[3,2-i:3′,4′-l][1,4,7]dioxazacyclopentadecine-4,16(5H,15H)-dione]
								41	81	94	84	74	67	33	12	Cc1cc2c([nH]1)/C=C1\C(=O)Nc3ccc(cc31)-c1c(noc1C)CNCCN(C)C2=O [Ex. 139, [3a(4)Z]-6,9,16-trimethyl-10,11,12,13-tetrahydro-2H-1,17-(ethanediylidene)[1,2]oxazolo[4,3-m]dipyrrolo[3,2-f:3′,4′-i][1,4]diazacyclopentadecine-3,8(5H,9H)-dione]
